Assay results as given in patent US20150011423A1, “MEANS AND METHODS FOR ASSESSING KIDNEY TOXICITY” (BASF SE, priority 2011, published 2015).
Values joined by “and” are separate entries in the source; they are usually repeats but may differ in a detail not shown here. Equal values may be shown once. Read-outs that look alike come from different tables or passages of the source. Marks after values point to notes of the source that are not given here.

How the values were obtained:
rats [1] = details: rat, in vivo
Experimental: (§1) A group of each 5 male and female rats was dosed once daily with the indicated compounds (see Table 9, below for compounds, applied doses and administration details) over 28 days.
(§2) Each dose group in the studies consisted of five rats per sex. Additional groups of each 5 male and female animals served as controls. Before starting the treatment period, animals, which were 62-64 days old when supplied, were acclimatized to the housing and environmental conditions for 7 days. All animals of the animal population were kept under the same constant temperature (20-24±3° C.) and the same constant humidity (30-70%). The animals of the animal population were fed ad libitum. The food to be used was essentially free of chemical or microbial contaminants. Drinking water was also offered ad libitum. […] The illumination period was 12 hours light followed by 12 hours darkness (12 hours light, from 6:00 to 18:00, and 12 hours darkness, from 18:00 to 6:00). […] The test substances (compounds in Table 9 were dosed and administered as described in the table above.
(§3) In the morning of day 7, 14, and 28, blood was taken from the retroorbital venous plexus from fasted anaesthetized animals. From each animal, 1 ml of blood was collected with EDTA as anticoagulant. The samples were centrifuged for generation of plasma. All plasma samples were covered with a N2 atmosphere and then stored at −80° C. until analysis.
(§4) For mass spectrometry-based metabolite profiling analyses plasma samples were extracted and a polar and a non-polar (lipid) fraction was obtained. For GC-MS analysis, the non-polar fraction was treated with methanol under acidic conditions to yield the fatty acid methyl esters. Both fractions were further derivatised with O-methyl-hydroxyamine hydrochloride and pyridine to convert Oxo-groups to O-methyloximes and subsequently with a silylating agent before analysis. In LC-MS analysis, both fractions were reconstituted in appropriate solvent mixtures. HPLC was performed by gradient elution on reversed phase separation columns.
(§5) Steroids and their metabolites were measured by online SPE-LC-MS (Solid phase extraction-LC-MS).
(§6) Following comprehensive analytical validation steps, the data for each analyte were normalized against data from pool samples. These samples were run in parallel through the whole process to account for process variability. The significance of treatment group values specific for sex, treatment duration and metabolite was determined by comparing means of the treated groups to the means of the respective untreated control groups using WELCH-test and quantified with treatment ratios versus control and p-values.

rats [2] = test: 28-day repeated dose study in rats with mass spectrometry-based plasma metabolite profiling (GC-MS, LC-MS, SPE-LC-MS); treatment ratios versus control
Experimental: as §1, §2, §3, §4, §5, §6

[3] = plasma, male rats, day 7, high dose, Table 6b ACE inhibitor induced like toxicity
[4] = plasma, male rats, day 7, high dose, Table 1d diuretic effect
[5] = plasma, male rats, day 14, high dose, Table 1c diuretic effect
[6] = plasma, male rats, day 14, high dose, Table 6b ACE inhibitor induced like toxicity
[7] = plasma, male rats, day 14, high dose, Table 1d diuretic effect
[8] = plasma, male rats, day 28, high dose, Table 6b ACE inhibitor induced like toxicity
[9] = plasma, male rats, day 28, high dose, Table 1d diuretic effect
[10] = plasma, female rats, day 28, high dose, Table 5a tubular necrosis
[11] = plasma, female rats, day 28, high dose, Table 5b tubular necrosis
[12] = plasma, female rats, day 14, high dose, Table 2a glomerular-tubular defect
[13] = plasma, female rats, day 14, high dose, Table 2b glomerular-tubular defect
[14] = plasma, female rats, day 28, high dose, Table 2a glomerular-tubular defect
[15] = plasma, female rats, day 28, high dose, Table 2b glomerular-tubular defect
[16] = plasma, male rats, day 7, high dose, Table 2d glomerular-tubular defect
[17] = plasma, male rats, day 14, high dose, Table 2c glomerular-tubular defect
[18] = plasma, male rats, day 14, high dose, Table 2d glomerular-tubular defect
[19] = plasma, male rats, day 28, high dose, Table 2c glomerular-tubular defect
[20] = plasma, male rats, day 28, high dose, Table 2d glomerular-tubular defect
[21] = plasma, male rats, day 7, high dose, Table 7a interstitial nephritis
[22] = plasma, male rats, day 7, high dose, Table 7b interstitial nephritis
[23] = plasma, male rats, day 14, high dose, Table 7a interstitial nephritis
[24] = plasma, male rats, day 14, high dose, Table 7b interstitial nephritis
[25] = plasma, male rats, day 28, high dose, Table 7a interstitial nephritis
[26] = plasma, male rats, day 28, high dose, Table 7b interstitial nephritis

For `NCCCC[C@H](N[C@@H](CCc1ccccc1)C(=O)O)C(=O)N1CCC[C@H]1C(=O)O` [Lisinopril], the “1,5-Anhydrosorbitol, treatment ratio versus control” value (rats [1]) was 1.22 *, the “Threonine, treatment ratio versus control” value (rats [2]; plasma, male rats, day 7, high dose, Table 1c diuretic effect) was 0.99^ and the “Lysine, treatment ratio versus control” value (rats [2]; plasma, male rats, day 7, high dose, Table 6a ACE inhibitor induced like toxicity) was 0.92^. The “Cytosine, treatment ratio versus control” value (rats [2]; [3]) was 0.97^, the “Glutamate, treatment ratio versus control” value (rats [2]; [3]) was 0.94 * and the “Glutamate, treatment ratio versus control” value (rats [2]; [4]) was 0.94 *. The “Lysophosphatidylcholine (C20:4), treatment ratio versus control” value (rats [2]; [4]) was 0.97^, the “Malate, treatment ratio versus control” value (rats [2]; [4]) was 0.75 * and the “Ceramide (d18:1, C24:0), treatment ratio versus control” value (rats [2]; [5]) was 1.19 *. For the same compound, the “Choline plasmalogen No 03, treatment ratio versus control” value (rats [2]; [5]) was 1.1 *, the “Sphingomyelin (d18:2, C16:0), treatment ratio versus control” value (rats [2]; [5]) was 1.38 * and the “1,5-Anhydrosorbitol, treatment ratio versus control” value (rats [2]; plasma, male rats, day 14, high dose, Table 6a ACE inhibitor induced like toxicity) was 1.2 *. The “Cytosine, treatment ratio versus control” value (rats [2]; [6]) was 0.89 *, the “Glutamate, treatment ratio versus control” value (rats [2]; [6]) was 0.85 * and the “Glutamate, treatment ratio versus control” value (rats [2]; [7]) was 0.85 *. For the same compound, the “Lysophosphatidylcholine (C20:4), treatment ratio versus control” value (rats [2]; [7]) was 0.94^, the “Malate, treatment ratio versus control” value (rats [2]; [7]) was 0.6 * and the “1,5-Anhydrosorbitol, treatment ratio versus control” value (rats [2]; plasma, male rats, day 28, high dose, Table 6a ACE inhibitor induced like toxicity) was 1.53 *. For the same compound, the “Cytosine, treatment ratio versus control” value (rats [2]; [8]) was 1, the “Glutamate, treatment ratio versus control” value (rats [2]; [8]) was 0.87 * and the “Glutamate, treatment ratio versus control” value (rats [2]; [9]) was 0.87 *. The “Lysophosphatidylcholine (C20:4), treatment ratio versus control” value (rats [2]; [9]) was 0.9 * and the “Malate, treatment ratio versus control” value (rats [2]; [9]) was 0.65 *.

In the case of `NC[C@H]1O[C@H](O[C@H]2[C@H](O)[C@@H](O[C@H]3O[C@H](CO)[C@@H](O)[C@H](N)[C@H]3O)[C@H](N)C[C@@H]2N)[C@H](N)C[C@@H]1O` [Tobramycin s.c., Tobramycin], the “Leucine, treatment ratio versus control” value (rats [1]) is reported as 1.26 *, the “Docosahexaenoic acid (C22:cis[4,7,10,13,16,19]6), treatment ratio versus control” value (rats [2]; [10]) is reported as 1.05 * and the “Docosapentaenoic acid (C22:cis[7,10,13,16,19]5), treatment ratio versus control” value (rats [2]; [10]) is reported as 1.56 *. The “Eicosanoic acid (C20:0), treatment ratio versus control” value (rats [2]; [10]) was 1.05, the “Glycerol, lipid fraction, treatment ratio versus control” value (rats [2]; [10]) was 1.2 * and the “Phosphate (inorganic and organic phosphates), treatment ratio versus control” value (rats [2]; [10]) was 1.3 *. For the same compound, the “Hippuric acid, treatment ratio versus control” value (rats [2]; [11]) was 0.14 * and the “Lactate, treatment ratio versus control” value (rats [2]; [11]) was 0.64 *.

In the case of `CC(C)(S)[C@@H](N)C(=O)O` [Penicillamine], the “3-Indoxylsulfate, treatment ratio versus control” value (rats [1]) is reported as 1.41 *, the “Adrenaline (Epinephrine), treatment ratio versus control” value (rats [1]) is reported as 1.14^ and the “Histamine, treatment ratio versus control” value (rats [1]) is reported as 1.36^. The “Threonic acid, treatment ratio versus control” value (rats [1]) was 1.47 *, the “3-Hydroxyindole, treatment ratio versus control” value (rats [2]; [12]) was 0.87^ and the “3-Indoxylsulfate, treatment ratio versus control” value (rats [2]; [12]) was 0.93^. For the same compound, the “Creatinine, treatment ratio versus control” value (rats [2]; [12]) was 1.69 *, the “Elaidic acid (C18:trans[9]1), treatment ratio versus control” value (rats [2]; [12]) was 1.2 and the “Adrenaline (Epinephrine), treatment ratio versus control” value (rats [2]; [13]) was 0.55 *. The “Glucosamine, treatment ratio versus control” value (rats [2]; [13]) was 0.75^, the “Mannosamine, treatment ratio versus control” value (rats [2]; [13]) was 0.64 * and the “3-Hydroxyindole, treatment ratio versus control” value (rats [2]; [14]) was 1.53 *. The “Elaidic acid (C18:trans[9]1), treatment ratio versus control” value (rats [2]; [14]) was 1.35 *, the “Glucosamine, treatment ratio versus control” value (rats [2]; [15]) was 0.48 * and the “Histamine, treatment ratio versus control” value (rats [2]; [15]) was 0.52 *. For the same compound, the “Mannosamine, treatment ratio versus control” value (rats [2]; [15]) was 0.5 *, the “4-Hydroxy-3-methoxyphenylglycol (HMPG), treatment ratio versus control” value (rats [2]; [16]) was 0.91 * and the “Cysteine, treatment ratio versus control” value (rats [2]; [16]) was 0.46 *. The “Isopalmitic acid (C16:0), treatment ratio versus control” value (rats [2]; [16]) was 0.75 *, the “Metanephrine, treatment ratio versus control” value (rats [2]; [16]) was 0.83 * and the “Normetanephrine, treatment ratio versus control” value (rats [2]; [16]) was 0.79 *. The “Creatine, treatment ratio versus control” value (rats [2]; [17]) was 1.35 *, the “Creatinine, treatment ratio versus control” value (rats [2]; [17]) was 1.8 * and the “Threonic acid, treatment ratio versus control” value (rats [2]; [17]) was 1.4 *. For the same compound, the “4-Hydroxy-3-methoxyphenylglycol (HMPG), treatment ratio versus control” value (rats [2]; [18]) was 0.84 *, the “Cysteine, treatment ratio versus control” value (rats [2]; [18]) was 0.51 * and the “Metanephrine, treatment ratio versus control” value (rats [2]; [18]) was 0.43 *. For the same compound, the “Normetanephrine, treatment ratio versus control” value (rats [2]; [18]) was 0.66 *, the “Creatine, treatment ratio versus control” value (rats [2]; [19]) was 1.27 * and the “Glycerol-3-phosphate, polar fraction, treatment ratio versus control” value (rats [2]; [19]) was 1.4 *. The “Lysophosphatidylcholine (C18:2), treatment ratio versus control” value (rats [2]; [19]) was 1.1, the “Threonic acid, treatment ratio versus control” value (rats [2]; [19]) was 1.7 * and the “4-Hydroxy-3-methoxyphenylglycol (HMPG), treatment ratio versus control” value (rats [2]; [20]) was 0.79 *. The “Cysteine, treatment ratio versus control” value (rats [2]; [20]) was 0.85 *, the “Metanephrine, treatment ratio versus control” value (rats [2]; [20]) was 0.68 * and the “Normetanephrine, treatment ratio versus control” value (rats [2]; [20]) was 0.68 *.

With `Cn1c(=O)c2c(ncn2C)n(C)c1=O` [Caffeine] the “Choline plasmalogen No 03, treatment ratio versus control” value (rats [1]) was 1.25 *, the “Histidine, treatment ratio versus control” value (rats [1]) was 1.29 * and the “Pantothenic acid, treatment ratio versus control” value (rats [1]) was 1.23 *. The “Threonic acid, treatment ratio versus control” value (rats [1]) was 1.46 *, the “Threonine, treatment ratio versus control” value (rats [1]) was 1.58 * and the “Valine, treatment ratio versus control” value (rats [1]) was 1.15 *. The “trans-4-Hydroxyproline, treatment ratio versus control” value (rats [1]) was 1.23 *, the “18-Hydroxy-11-deoxycorticosterone, treatment ratio versus control” value (rats [2]; rat, in vivo) was 0.38 * and the “Choline plasmalogen No 03, treatment ratio versus control” value (rats [2]; rat, in vivo) was 1.55 * and 1.56 *. For the same compound, the “Creatinine, treatment ratio versus control” value (rats [2]; rat, in vivo) was 0.84 *, the “Glutamate, treatment ratio versus control” value (rats [2]; rat, in vivo) was 0.55 * and 0.65 * and 0.7 * and the “Glycine, treatment ratio versus control” value (rats [2]; rat, in vivo) was 1.5 *. For the same compound, the “Hippuric acid, treatment ratio versus control” value (rats [2]; rat, in vivo) was 0.38 *, the “Lysophosphatidylcholine (C20:4), treatment ratio versus control” value (rats [2]; rat, in vivo) was 0.85 * and 0.87 * and 0.89 * and the “Malate, treatment ratio versus control” value (rats [2]; rat, in vivo) was 0.61 * and 0.55 * and 0.54 *. For the same compound, the “Proline, treatment ratio versus control” value (rats [2]; rat, in vivo) was 1.23, the “Sphingomyelin (d18:2, C16:0), treatment ratio versus control” value (rats [2]; rat, in vivo) was 2.34* and the “Threonine, treatment ratio versus control” value (rats [2]; rat, in vivo) was 1.2 * and 1.59 *.

With `CCc1ccccc1` [Ethyl benzene, Ethylbenzene] the “Creatine, treatment ratio versus control” value (rats [2]; [21]) was 1.4 *, the “Creatinine, treatment ratio versus control” value (rats [2]; [21]) was 1.41 * and the “Eicosanoic acid (C20:0), treatment ratio versus control” value (rats [2]; [21]) was 1.41 *. For the same compound, the “Glucuronic acid, treatment ratio versus control” value (rats [2]; [21]) was 1.08^, the “Lignoceric acid (C24:0), treatment ratio versus control” value (rats [2]; [21]) was 1.31 * and the “Phosphatidylcholine (C18:2, C20:4), treatment ratio versus control” value (rats [2]; [21]) was 1.05 *. The “Serine, treatment ratio versus control” value (rats [2]; [21]) was 1.12 *, the “Sphingomyelin (d18:1, C16:0), treatment ratio versus control” value (rats [2]; [21]) was 1.69 * and the “Threonine, treatment ratio versus control” value (rats [2]; [21]) was 1.31 *. For the same compound, the “myo-Inositol-2-phosphate, treatment ratio versus control” value (rats [2]; [21]) was 1.39 *, the “Glycerol, polar fraction, treatment ratio versus control” value (rats [2]; [22]) was 0.98^ and the “Isopalmitic acid (C16:0), treatment ratio versus control” value (rats [2]; [22]) was 0.55 *. For the same compound, the “Kynurenic acid, treatment ratio versus control” value (rats [2]; [22]) was 0.71 *, the “Creatine, treatment ratio versus control” value (rats [2]; [23]) was 1.35 * and the “Creatinine, treatment ratio versus control” value (rats [2]; [23]) was 1.58 *. For the same compound, the “Eicosanoic acid (C20:0), treatment ratio versus control” value (rats [2]; [23]) was 1.3 *, the “Glucuronic acid, treatment ratio versus control” value (rats [2]; [23]) was 1.17 * and the “Lignoceric acid (C24:0), treatment ratio versus control” value (rats [2]; [23]) was 1.55 *. For the same compound, the “Phosphatidylcholine (C18:2, C20:4), treatment ratio versus control” value (rats [2]; [23]) was 1.06 *, the “Serine, treatment ratio versus control” value (rats [2]; [23]) was 1.5 * and the “Sphingomyelin (d18:1, C16:0), treatment ratio versus control” value (rats [2]; [23]) was 1.5 *. For the same compound, the “Threonine, treatment ratio versus control” value (rats [2]; [23]) was 1.72 *, the “myo-Inositol-2-phosphate, treatment ratio versus control” value (rats [2]; [23]) was 0.88^ and the “Glycerol, polar fraction, treatment ratio versus control” value (rats [2]; [24]) was 0.87^. The “Isopalmitic acid (C16:0), treatment ratio versus control” value (rats [2]; [24]) was 0.57 *, the “Kynurenic acid, treatment ratio versus control” value (rats [2]; [24]) was 0.83 * and the “Creatine, treatment ratio versus control” value (rats [2]; [25]) was 1.34 *. The “Creatinine, treatment ratio versus control” value (rats [2]; [25]) was 1.33 *, the “Eicosanoic acid (C20:0), treatment ratio versus control” value (rats [2]; [25]) was 1.76 * and the “Glucuronic acid, treatment ratio versus control” value (rats [2]; [25]) was 1.26 *. The “Lignoceric acid (C24:0), treatment ratio versus control” value (rats [2]; [25]) was 1.23 *, the “Phosphatidylcholine (C18:2, C20:4), treatment ratio versus control” value (rats [2]; [25]) was 1.05^ and the “Serine, treatment ratio versus control” value (rats [2]; [25]) was 1.54 *. For the same compound, the “Sphingomyelin (d18:1, C16:0), treatment ratio versus control” value (rats [2]; [25]) was 1.48 *, the “Threonine, treatment ratio versus control” value (rats [2]; [25]) was 2.44 * and the “myo-Inositol-2-phosphate, treatment ratio versus control” value (rats [2]; [25]) was 1.3 *. For the same compound, the “Glycerol, polar fraction, treatment ratio versus control” value (rats [2]; [26]) was 0.75 *, the “Isopalmitic acid (C16:0), treatment ratio versus control” value (rats [2]; [26]) was 0.59 * and the “Kynurenic acid, treatment ratio versus control” value (rats [2]; [26]) was 0.8 *.
